Data on one compound can be found in patent publication US20230312652A1, “NOVEL PEPTIDES AND USES THEREOF” (Aarhus Universitet, priority 2020, published 2023).

Data set [1] is described as follows: Plasma binding, mouse plasma, ultracentrifugation. The data set is classed as in vitro ADME. The protocol:
For plasma binding, 2 μM P1 or Warfarin (positive control) were added to mouse or human plasma. After 30 minutes incubation at 37° C., samples where ultracentrifuged for 4 hours to generate protein-free samples for LCMS analysis. In parallel, plasma was incubated for 4.5 h to determine total levels after incubation. Plasma binding was calculated as % Bound=100*(1−F/T4.5), where F is concentration of free ligand and T4.5 is the concentration of total ligand after incubation.

Data set [2] relates to AMPK (T172) and CREB (S133). In words: P1 activation of AMPK and CREB with or without CaMKK2-inhibitor STO-609 in cortical neurons. The data set is classed as cell-based, mouse. The protocol:
Mouse cortical neurons were isolated from p0 wild-type mice and seeded in a density of 250,000 per well in a 12-well tray. After 7 days in vitro the neurons were either pre-treated with STO-609 (5 uM) for 1 hour or with DMSO (control). After 1 hour, the neurons were stimulated with P1 or a scrambled peptide (Scr), with or without STO-609, in neurobasal A media and incubated at 37° C. and 5% CO2 for 20 minutes. Hereafter, the neurons were lysed in lysis buffer containing DTT and cOmplete cocktail protease inhibitor. Phosphorylation of AMPK (T172) and CREB (S133) was validated by western blotting and normalized to beta-actin.

Data set [3] deals with GRN+/- hippocampal neurons. The experiment in a line: Dendritic branching of GRN+/- hippocampal neurons. The data set is classed as cell-based, mouse. The conditions noted are these: 1 uM, 72 hours. The protocol: To further validate the therapeutic potential of peptide P1 in frontotemporal dementia, its neurotrophic activity in GRN heterozygous hippocampal neurons isolated from p0 mice was investigated. Heterozygous loss of function mutations in the progranulin gene, GRN, cause frontotemporal dementia^68. To assess this, we measured the dendritic branching of GRN+/− hippocampal neurons in vitro following treatment. 10000 neurons were seeded per coverslip. After 24 hours the medium was changed to medium containing 1 uM of peptide P1. Hereafter, the cells were incubated at 37° C. for 72 hours before being fixed in 4% PFA for 20 minutes at room temperature. The neurons were subsequently stained against MAP2 to determine cell morphology. Images were taken using a confocal microscope and the neurite branches were analysed using Zen Image Processing (Carl Zeiss). The total number of branches were calculated per neuron. Student's t-test was used for statistical analysis.

Data set [4] can be described thus: Plasma, whole brain and cerebrospinal fluid concentrations after SC or IV injection, LC MS/MS. The settings on record: for half-life: mouse, in vivo, read-out: T½ in brain (converted). The data set is classed as in vivo, mouse. Here is the method:
13 mg/kg and 52 mg/kg of P1 were either subcutaneously or intravenously injected in wild-type mice in either 4.38 mM L-His, 140 mM NaCl, 0.2% Tween-20 and 1500 IU hyaluronidase (for SC, pH 6.15) or saline (IV). Both plasma, whole brain and cerebrospinal fluid concentrations were validated at different timepoints of 0.25-4 hours by LC MS/MS.
We further explored whether delivery to the CSF and brain would be dose-dependent by the SC route. P1 (SEQ ID NO: 1) were subcutaneously injected in wild-type mice in different concentrations of 0-52 mg/kg in 4.38 mM L-His, 140 mM NaCl, 0.2% Tween-20 and 1500 IU hyaluronidase (pH 6.15). Levels of P1 were validated in both plasma, whole brain and cerebrospinal fluid after 15 min injection by LC MS/MS.
13 mg/kg of P1 (SEQ ID NO: 1) were subcutaneously injected in wild-type mice in different formulations in either PBS buffer, in buffer containing 4.38 mM L-His, 140 mM NaCl, 0.2% Tween-20 and 1500 IU hyaluronidase (pH 6.15) or in buffer with 4.38 mM L-His, 140 mM NaCl, 0.2% Tween-20. Levels of P1 were validated in both plasma and whole brain after 15 and 30 min. of injection by LC MS/MS.

Data set [5] deals with R6/2 mice (mouse model of Huntington's). In words: Stereological analysis of regional brain volume in R6/2 mice. The conditions noted are these: 13 mg/kg SC daily, 8 to 12 weeks of age. The data set is classed as in vivo. Here is the method: The brain was cut using a fine razor blade and one hemisphere (right) was directly put into ice-cold 4% PFA in PBS for 24 hours, and then transferred to a 30% sucrose PBS solution for 48 hours and stored at 4° C.
The PFA fixed hemispheres were imbedded in TissueTec and sliced on a cryostat at 50 μm thickness. For stereology, every 5th section was sampled using the principle of systematic random sampling, giving a section sampling fraction (SSF)=1/5.
The sections were mounted on chrome-gelatin-coated slides and Nissl stained with a 0.25% thionine solution (thionin, Sigma T3387). Image acquisition and analysis was performed using the newCAST system (Visiopharm, Horsholm, Denmark). This system consists of an Olympus light microscope (Olympus BX50, Olympus, Denmark) modified for stereology with a digital camera (PixeLINK PLA686C, Canada) and a motorized microscope stage (Prior H138 with controller H29, Cambridge, UK). The newCAST software was interfaced to the digital camera superimposing the counting frames on the live images.
The volume estimation was carried out using the Cavalieri principle for quantifying the total volume of the hippocampus, striatum and mid-part of the cortex (6 slides used for this) using a 4× lens.

Where [6] appears, read: SC 0-52 mg/kg, 15 min after injection.

Each structure is given as a SMILES string. Read-outs that look alike come from different tables or passages of the source. Where a SMILES comes first, the peptide text is derived from it.

Turning to `CSCC[C@@H]1NC(=O)[C@H](C(C)C)NC(=O)[C@H](CC(=O)O)NC(=O)[C@H](CCC(=O)O)NC(=O)[C@H](CCC(=O)O)NC(=O)[C@H](Cc2c[nH]cn2)NC(=O)[C@H](CCC(=O)O)NC(=O)[C@H](C(C)C)NC(=O)[C@@H]2CCCN2C(=O)[C@H](CCC(=O)O)NC(=O)[C@H]([C@@H](C)O)NC1=O` [Peptide P1, [MTEPVEHEEDV]] (cyclo(MTEPVEHEEDV)), the plasma binding result in data set [1] (2 μM) is reported as “very low plasma binding”. The fraction unbound at 30 min, 2 μM in data set [1] (read-out: compound unbound in plasma) is greater than 0.75. Besides, in data set [2] (1 uM P1, without STO-609), the “phosphorylation of AMPK (T172)” value was “significantly increased phosphorylation” and the “phosphorylation of CREB (S133)” value was “significantly increased phosphorylation”. The “P1-induced activation of AMPK” value in data set [2] (pre-treated with 5 uM STO-609 for 1 hour) is on record as “loss of P1-induced activation of AMPK”. Moreover, in data set [2] (pre-treated with 5 uM STO-609 for 1 hour, compared to P1-treated cells only), the “CREB activation by P1” value was “lowered but not totally abolished”. For the same compound, the “number of branches per neuron” value in data set [3] was “increased branching”. Besides, the “difference between L-His buffer with or without hyaluronidase” value in data set [4] (13 mg/kg SC, plasma and whole brain, 15 and 30 min) is reported as “no significant difference”. The “levels in plasma and whole brain in different formulations” value in data set [4] (13 mg/kg SC, PBS, L-His buffer with or without hyaluronidase, 15 and 30 min) is “measurable in the plasma and brain in all formulations”. In addition, the maximal brain-plasma ratio in data set [4] (IV delivery) came out at 0.034. Also, in data set [4] (setting [6]), the “levels in brain and CSF” value was “measurable in the brain and CSF at all concentrations”; the “levels in plasma, brain and CSF versus dose” value was “increased with the dosage”. The maximal brain-plasma ratio in data set [4] (SC delivery) was found to be 0.032. Further, the half-life in data set [4] (IV delivery, saline) was 13.9 min. In addition, in data set [4] (SC delivery, L-His buffer with hyaluronidase), the half-life is 19 min. In data set [5], the cortical volume result is given as “tendency of increasing” and the hippocampal volume result was “tendency of increasing”.
